Laboratory results: patent US12655116B2, “Substituted isophthalic acid diamides” (Bayer Aktiengesellschaft, priority 2020, dated 2026)

How the values were obtained:
[1] = tested on: ECHCG; assay: Post-emergence herbicidal action against ECHCG; type: in vivo, Echinochloa crus-galli
Summary of the method: (§1)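 Weeds in sandy loam soil received a post-emergence spray at the one-leaf stage. Compounds were applied as WP or EC in water, 600 to 800 l/ha, with 0.2% wetting agent. Activity in % was judged visually after roughly 3 weeks against untreated plants.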

[2] = tested on: VIOTR; assay: Post-emergence herbicidal action against VIOTR; type: in vivo, Viola tricolor
Summary of the method: as §1

[3] = tested on: ECHCG; assay: Pre-emergence herbicidal action against ECHCG; type: in vivo, Echinochloa crus-galli; details: 80 g/ha; for pest or weed control at 80 g/ha: Echinochloa crus-galli, 504 h
Summary of the method: (§2)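 Visual rating at 3 weeks vs untreated pots; 0–100% scale, 100% = plants died. Treatment: aqueous WP/EC spray onto covering soil, 600–800 l/ha, 0.2% wetter, seeds in sandy loam.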

[4] = tested on: PHBPU; assay: Pre-emergence herbicidal action against PHBPU; type: in vivo, Pharbitis purpurea; details: dosage 80 g/ha; for pest or weed control at 80 g/ha: Ipomoea purpurea, 504 h
Summary of the method: as §2

[5] = tested on: SETVI; assay: Pre-emergence herbicidal action against SETVI; type: in vivo, Setaria viridis
Summary of the method: as §2

[6] = tested on: MATIN; assay: Pre-emergence herbicidal action against MATIN; type: in vivo, Matricaria inodora; details: for pest or weed control at 20 g/ha / pest or weed control at 80 g/ha: Tripleurospermum inodorum, 504 h
Summary of the method: as §2

[7] = tested on: ALOMY; assay: Pre-emergence herbicidal action against ALOMY; type: in vivo, Alopecurus myosuroides; details: for pest or weed control at 80 g/ha / pest or weed control at 20 g/ha: Alopecurus myosuroides, 504 h
Summary of the method: as §2

[8] = tested on: AVEFA; assay: Pre-emergence herbicidal action against AVEFA; type: in vivo, Avena fatua; details: 80 g/ha, pre-emergence; for pest or weed control at 80 g/ha: Avena fatua, 504 h
Summary of the method: as §2

[9] = tested on: AMARE; assay: Pre-emergence herbicidal action against AMARE; type: in vivo, Amaranthus retroflexus; details: for pest or weed control at 20 g/ha / pest or weed control at 80 g/ha: Amaranthus retroflexus, 504 h
Summary of the method: as §2

[10] = tested on: SETVI; assay: Post-emergence herbicidal action against SETVI; type: in vivo, Setaria viridis
Summary of the method: as §1

[11] = tested on: VIOTR; assay: Pre-emergence herbicidal action against VIOTR; type: in vivo, Viola tricolor
Summary of the method: as §2

[12] = tested on: ABUTH; assay: Pre-emergence herbicidal action against ABUTH; type: in vivo, Abutilon theophrasti; details: for pest or weed control at 80 g/ha / pest or weed control at 20 g/ha: Abutilon theophrasti, 504 h; for pest or weed control at 20 g/ha: read-out: Pre-emergence action against ABUTH (herbicidal activity in percent)
Summary of the method: as §2

[13] = tested on: ALOMY; assay: Post-emergence herbicidal action against ALOMY; type: in vivo, Alopecurus myosuroides; details: visual assessment about 3 weeks after treatment vs untreated controls
Summary of the method: as §1

[14] = tested on: LOLRI; assay: Pre-emergence herbicidal action against LOLRI; type: in vivo, Lolium rigidum; details: 80 g/ha; for pest or weed control at 80 g/ha: Lolium rigidum, 504 h
Excerpt: Seeds of monocotyledonous and dicotyledonous weed plants and crop plants are laid out in sandy loam soil in wood-fiber pots and covered with soil. The compounds of the invention, formulated in the form of wettable powders (WP) or as emulsion concentrates (EC), are then applied to the surface of the covering soil in the form of an aqueous suspension or emulsion at a water application rate equivalent to 600 to 800 l/ha, with addition of 0.2% wetting agent. After the treatment, the pots are placed in a greenhouse and kept under good growth conditions for the trial plants. The damage to the test plants is scored visually after a test period of 3 weeks by comparison with untreated controls (herbicidal activity in percent (%): 100% activity=the plants have died, 0% activity=like control plants). […] The tables below illustrate, in an illustrative manner, the post-emergence herbicidal action of the compounds of the invention, the herbicidal activity being stated in percent.

[15] = tested on: DIGSA; assay: Pre-emergence herbicidal action against DIGSA; type: in vivo, Digitaria sanguinalis
Summary of the method: as §2

[16] = tested on: VERPE; assay: Post-emergence herbicidal action against VERPE; type: in vivo, Veronica persica; details: Veronica persica, 504 h, 20 g/ha
Summary of the method: as §1

[17] = tested on: ABUTH; assay: Post-emergence herbicidal action against ABUTH; type: in vivo, Abutilon theophrasti; details: Abutilon theophrasti, 504 h, visual assessment about 3 weeks after treatment vs untreated controls; for pest or weed control at 5 g/ha: dosage 5 g/ha; for pest or weed control at 20 g/ha: dosage 20 g/ha
Summary of the method: as §1

[18] = tested on: AMARE; assay: Post-emergence herbicidal action against AMARE; type: in vivo, Amaranthus retroflexus; details: Amaranthus retroflexus, 504 h, 20 g/ha, visual assessment about 3 weeks after treatment, 100% = plants have died, 0% = like control plants
Summary of the method: as §1

[19] = tested on: VERPE; assay: Pre-emergence herbicidal action against VERPE; type: in vivo, Veronica persica; details: Veronica persica, 504 h, dosage 80 g/ha
Summary of the method: as §2

[20] = 80 g/ha, pre-emergence, scored visually after 3 weeks vs untreated controls (100% = plants have died, 0% = like control plants)
[21] = 20 g/ha, scored visually after 3 weeks vs untreated controls, 100% = plants have died, 0% = like control plants
[22] = 80 g/ha, scored visually after 3 weeks vs untreated controls (100% = plants have died, 0% = like control plants)
[23] = dosage 20 g/ha, scored visually after 3 weeks vs untreated controls, 100% = plants have died, 0% = like control plants
[24] = Echinochloa crus-galli, 504 h, dosage 20 g/ha
[25] = pre-emergence, 20 g/ha, scored visually after 3 weeks, 100% = plants have died, 0% = like control plants
[26] = 80 g/ha, scored visually after 3 weeks vs untreated controls, 100% = plants have died, 0% = like control plants
[27] = Viola tricolor, 504 h, dosage 80 g/ha
[28] = Alopecurus myosuroides, 504 h, dosage 20 g/ha

SMILES: Cn1nnnc1NC(=O)c1ccc(Br)c(C(=O)NCC(F)F)c1Cl [Example 1-182]
- Post-emergence action against ECHCG in % ([1]; dosage 20 g/ha): 80%
- Post-emergence action against VIOTR in % ([2]; 5 g/ha): 100%
- Post-emergence action against VIOTR in % ([2]; 20 g/ha): 100%
- Pre-emergence action against ECHCG in % [3]: 100%
- Pre-emergence action against PHBPU in % [4]: 90%
- Pre-emergence action against SETVI in % ([5]; dosage 20 g/ha): 100%
- Pre-emergence action against SETVI in % ([5]; dosage 80 g/ha): 100%
- Pre-emergence action against MATIN in % ([6]; dosage 20 g/ha): 90%
- Pre-emergence action against MATIN in % ([6]; dosage 80 g/ha): 100%
- Pre-emergence action against ALOMY ([7]; 20 g/ha, scored visually after 3 weeks, 100% = plants have died, 0% = like control plants): 80%
- Pre-emergence action against ALOMY (herbicidal activity) [7, 20]: 100%
- Pre-emergence action against AVEFA in % [8]: 90%
- Pre-emergence action against AMARE in % [9, 21]: 100%
- Pre-emergence action against AMARE in % [9, 22]: 100%
- Post-emergence action against SETVI in % ([10]; dosage 5 g/ha): 90%
- Post-emergence action against SETVI in % ([10]; dosage 20 g/ha): 100%
- Pre-emergence action against VIOTR in % ([11]; dosage 20 g/ha): 90%
- Pre-emergence action against VIOTR in % ([11]; dosage 80 g/ha): 100%
- Pre-emergence action against ABUTH (herbicidal activity) [12, 22]: 100%
- Pre-emergence action against ABUTH (herbicidal activity in percent) [12, 23]: 100%
- Post-emergence action against ALOMY in % ([13]; dosage 5 g/ha): 90%
- Post-emergence action against ALOMY in % ([13]; dosage 20 g/ha): 100%
- Pre-emergence action against LOLRI in % [14]: 80%
- Pre-emergence action against DIGSA in % ([15]; dosage 20 g/ha): 100%
- Pre-emergence action against DIGSA in % ([15]; dosage 80 g/ha): 100%

SMILES: CC(C)NC(=O)c1c(Br)ccc(C(=O)Nc2nnnn2C)c1Cl [Example 1-185]
- pest or weed control at 5 g/ha ([1]; Echinochloa crus-galli, 504 h, dosage 5 g/ha): 90%
- pest or weed control at 20 g/ha [1, 24]: 100%
- pest or weed control at 20 g/ha ([2]; Viola tricolor, 504 h, 20 g/ha): 80%
- pest or weed control at 20 g/ha [16]: 80%
- pest or weed control at 80 g/ha [3]: 100%
- pest or weed control at 80 g/ha [4]: 80%
- pest or weed control at 80 g/ha ([5]; Setaria viridis, 504 h, dosage 80 g/ha): 100%
- pest or weed control at 5 g/ha [17]: 80%
- pest or weed control at 20 g/ha [17]: 90%
- pest or weed control at 20 g/ha ([6]; dosage 20 g/ha): 100%
- pest or weed control at 80 g/ha ([6]; dosage 80 g/ha): 100%
- pest or weed control at 80 g/ha [7, 20]: 100%
- pest or weed control at 20 g/ha [7, 25]: 90%
- pest or weed control at 80 g/ha [8]: 100%
- pest or weed control at 20 g/ha [9, 21]: 100%
- pest or weed control at 80 g/ha [9, 26]: 100%
- pest or weed control at 20 g/ha [18]: 100%
- pest or weed control at 5 g/ha ([10]; Setaria viridis, 504 h, dosage 5 g/ha): 80%
- pest or weed control at 20 g/ha ([10]; Setaria viridis, 504 h, dosage 20 g/ha): 100%
- pest or weed control at 20 g/ha ([11]; Viola tricolor, 504 h, dosage 20 g/ha): 80%
- pest or weed control at 80 g/ha [11, 27]: 100%
- pest or weed control at 80 g/ha [12, 22]: 100%
- pest or weed control at 20 g/ha [12, 23]: 100%
- pest or weed control at 20 g/ha [13, 28]: 90%
- pest or weed control at 80 g/ha [14]: 90%

SMILES: CCCNC(=O)c1c(Br)ccc(C(=O)Nc2nnnn2CC)c1Cl [Example 2-184]
- pest or weed control at 20 g/ha [1, 24]: 100%
- pest or weed control at 80 g/ha [19]: 100%
- pest or weed control at 80 g/ha [3]: 100%
- pest or weed control at 80 g/ha [4]: 90%
- pest or weed control at 5 g/ha [17]: 90%
- pest or weed control at 20 g/ha [17]: 90%
- pest or weed control at 20 g/ha ([6]; dosage 20 g/ha): 90%
- pest or weed control at 80 g/ha ([6]; dosage 80 g/ha): 100%
- pest or weed control at 80 g/ha [7, 20]: 100%
- pest or weed control at 20 g/ha [7, 25]: 90%
- pest or weed control at 80 g/ha [8]: 90%
- pest or weed control at 20 g/ha [9, 21]: 100%
- pest or weed control at 80 g/ha [9, 26]: 100%
- pest or weed control at 20 g/ha [18]: 100%
- pest or weed control at 80 g/ha [11, 27]: 100%
- pest or weed control at 80 g/ha [12, 22]: 100%
- pest or weed control at 20 g/ha [12, 23]: 100%
- pest or weed control at 5 g/ha ([13]; Alopecurus myosuroides, 504 h, dosage 5 g/ha): 80%
- pest or weed control at 20 g/ha [13, 28]: 100%
- pest or weed control at 80 g/ha [14]: 80%
